Format in all cases: in vivo
Data set [1] deals with corn. Here is the method:
Seeds of monocotyledonous and dicotyledonous weed and crop plants are placed into sandy loam in wood fiber pots or in plastic pots, covered with soil and cultivated in a greenhouse, including during the vegetation period outdoors outside of the greenhouse, under good growth conditions. 2-3 weeks after sowing, the test plants are treated at the one- to three-leaf stage. The herbicidal compositions according to the invention, formulated as wettable powders (WP) or liquid (EC) are, in various dosages with a water application rate of 300 l/ha (converted), with added wetting agent (0.2 to 0.3%), sprayed onto the plants and the surface of the soil. 3 to 4 weeks after the treatment of the test plants, the effect of the preparations is rated visually in comparison to untreated controls.
The abbreviation “a.i.” means active ingredient.

The subject of data set [2] is corn. Nature of the data set: Herbicidal pre-emergence action: damage to corn. An excerpt: Seeds of monocotyledonous and dicotyledonous weed and crop plants are placed into sandy loam in cardboard pots and covered with soil. The herbicidal compositions according to the invention, formulated in the form of wettable powders or emulsion concentrates, are then applied as an aqueous suspension or emulsion with a water application rate of 600 to 800 l/ha (converted) in different dosages to the surface of the covering soil. After the treatment, the pots are placed in a greenhouse and kept under good growth conditions for the weeds. Optical scoring of the damage to the plants or the emergence damage is carried out after emergence of the test plants after a test period of 3 to 4 weeks, by comparison with untreated controls.
(§1) The herbicidal activity or damage is in each case stated in percent: 100% activity=the plants have died, 0% activity=like untreated control plants. The abbreviation “a.i.” means active ingredient.

Data set [3] concerns corn. Conditions: seed treatment, post-emergence; reduction of corn damage by seed dressing with A3 0.5 g/kg; printed in the line of the herbicide alone.
Data set [4] deals with corn. As to the kind of experiment: Treatment of corn seed with safener, herbicide pre-emergence. Conditions: reduction of corn damage by seed dressing with A3 0.5 g/kg, printed in the line of the herbicide alone. The protocol: Corn seed is treated (dressed) with various amounts of a safener and then placed-in sandy loam and covered with soil. The herbicides, formulated as emulsifiable concentrates or dust, are applied using a water application rate of 300 to 800 l/ha (converted) at various dosages to the surface of the covering soil. The optical scoring of the damage to the useful plants is carried out 3 to 5 weeks after the treatment.
as §1
In Tables 3 and 4, the dosage of the herbicide (component B) is stated in gram per hectare and that of the safener (component A) is stated in gram per kilogram of seed.

The mark [5] stands for this setting: post-emergence, reduction of corn damage by adding safener A3 to the herbicide, printed in the line of the herbicide alone, spans both lines.
The mark [6] stands for this setting: pre-emergence, reduction of corn damage by adding safener A3 to the herbicide, printed in the line of the herbicide alone, spans both lines.

Like-named read-outs stand apart in the source and are kept apart here.

Consider `COc1nn(C(=O)NS(=O)(=O)c2ccccc2OC(F)(F)F)c(=O)n1C` [Component B1.1, flucarbazone], for which the results for the “Damage reduced by” value in the data set with corn [1] (setting [5]), with corn [2] (setting [6]) and in the data set on corn [3] were 70%, 78% and 80%, respectively.

With `COc1cc(OC)nc(NC(=O)NS(=O)(=O)c2cc(NC=O)ccc2C(=O)N(C)C)n1` [Component B1.2, foramsulfuron], the “Damage reduced by” value with corn [1] (in vivo) turned out to be 100%.

On to `COc1nc(C)nc(NC(=O)NS(=O)(=O)c2cc(I)ccc2C(=O)O)n1` [Component B1.3, iodosulfuron], for which the “Damage reduced by” value in the data set on corn [2] (in vivo) worked out at 69%.

On to `COc1cc(OC)n2nc(S(=O)(=O)Nc3c(Cl)ccc(C)c3Cl)nc2n1` [Component B1.4, metosulam], for which, in the data set with corn [2] (in vivo), the “Damage reduced by” value is 33%.

Take `COc1nc(C)nc(=NC(=O)NS(=O)(=O)c2ccccc2C(=O)O)[nH]1` [Component B1.5, metsulfuron]: the “Damage reduced by” value with corn [1] (setting [5]) and with corn [3] was 80% throughout.

In the case of `COc1cc(OC)nc(NC(=O)NS(=O)(=O)c2ncccc2C(=O)N(C)C)n1` [Component B1.6, nicosulfuron], the “Damage reduced by” value in the data set on corn [2] (setting [6]) turned out to be 67%.

On to `COc1nc(C)nc(NC(=O)NS(=O)(=O)c2ccccc2CCC(F)(F)F)n1` [Component B1.8, prosulfuron], for which, in the data set on corn [2] (in vivo), the “Damage reduced by” value was 67%.

`COc1nc(C)nc(NC(=O)NS(=O)(=O)c2ccsc2C(=O)O)n1` [Component B1.9, thifensulfuron]: in the data set with corn [2] (setting [6]), the “Damage reduced by” value is 100%.

As to `COc1nc(C)nc(N(C)C(=O)NS(=O)(=O)c2ccccc2C(=O)O)n1` [Component B1.10, tribenuron], the “Damage reduced by” value amounted to 50% in the data set on corn [2] (setting [6]) and 60% in the data set on corn [4].

As to `CCOc1nc(F)cc2nc(S(=O)(=O)Nc3c(Cl)cccc3C(=O)OC)nn12` [Component B1.11, cloransulam-methyl], the “Damage reduced by” value is reported as 50% in the data set with corn [1] (in vivo) and 43% with corn [2] (in vivo).

`COc1cc(Cl)nc(NC(=O)NS(=O)(=O)c2ccccc2C(=O)O)n1` [Component B1.12, chlorimuron]: the “Damage reduced by” value in the data set with corn [1] (setting [5]) was 86%; in the data set on corn [3], 71%.

In the case of `CCOc1ccccc1OS(=O)(=O)NC(=O)Nc1nc(OC)cc(OC)n1` [Component B1.13, ethoxysulfuron], the “Damage reduced by” value in the data set on corn [1] (in vivo) and in the data set on corn [2] (in vivo) was 50% throughout.

For `Cc1ccn2nc(S(=O)(=O)Nc3c(F)cccc3F)nc2n1` [Component B1.16, flumetsulam], the entries for the “Damage reduced by” value in the data set with corn [1] (in vivo) and in the data set with corn [2] (in vivo) were 43% and 57%, respectively.

With `COc1cc(OC)nc(NC(=O)NS(=O)(=O)c2c(C(=O)O)c(Cl)nn2C)n1` [Component B1.17, halosulfuron], the “Damage reduced by” value with corn [1] (in vivo) was determined as 100%.

For `COCc1cnc(C2=NC(C)(C(C)C)C(=O)N2)c(C(=O)O)c1` (stereo not drawn) [Component B1.18, imazamox], the “Damage reduced by” value in the data set on corn [1] (setting [5]) is listed as 40%.

Take `Cc1cnc(C2=NC(=O)C(C)(C(C)C)N2)c(C(=O)O)c1` (stereo not drawn) [Component B1.19, imazapic]: in the data set with corn [1] (in vivo), the “Damage reduced by” value came to 33%.

Regarding `CCc1cnc(C2=NC(C)(C(C)C)C(=O)N2)c(C(=O)O)c1` (stereo not drawn) [Component B1.21, imazethapyr], the “Damage reduced by” value in the data set on corn [1] (in vivo) is given as 71%.

In the case of `COc1cc(OC)nc(NC(=O)NS(=O)(=O)c2cc(CNS(C)(=O)=O)ccc2C(=O)O)n1` [Component B1.22, mesosulfuron], the “Damage reduced by” value in the data set with corn [2] (setting [6]) is listed as 56%.

Turning to `CCCOc1nn(C(=O)[N-]S(=O)(=O)c2ccccc2C(=O)OC)c(=O)n1C.[Na+]` [Component B1.23, propoxycarbazone], in the data set with corn [3], the “Damage reduced by” value is reported as 68%.

In the case of `COc1cc(OC)nc(NC(=O)NS(=O)(=O)N(C)S(C)(=O)=O)n1` [Component B1.25, amidosulfuron], the “Damage reduced by” value in the data set with corn [1] (in vivo) stood at 80%.

As for `COc1nc(C)nc(NC(=O)NS(=O)(=O)c2ccccc2Cl)n1` [Component B1.26, chlorsulfuron], in the data set with corn [1] (in vivo), the “Damage reduced by” value amounted to 86%.

As to `COc1nc(C)nc(NC(=O)NS(=O)(=O)c2ccccc2OCCCl)n1` [Component B1.28, triasulfuron], the “Damage reduced by” value in the data set with corn [2] (in vivo) is on record as 71%.

As for `COc1cc(OC)nc(NC(=O)NS(=O)(=O)c2nc(C(F)(F)F)ccc2C(=O)O)n1` [Component B1.31, flupyrsulfuron], the “Damage reduced by” value in the data set with corn [1] (setting [5]) and in the data set on corn [3] was 75% each time.

As for `COc1cc(OC)nc(NC(=O)NS(=O)(=O)c2c(C(=O)O)cnn2C)n1` [Component B1.32, pyrazosulfuron], in the data set on corn [2] (setting [6]), the “Damage reduced by” value amounted to 38%.

Consider `CCS(=O)(=O)c1cccnc1S(=O)(=O)NC(=O)Nc1nc(OC)cc(OC)n1` [Component B1.36, rimsulfuron], for which the “Damage reduced by” value with corn [1] (in vivo) stood at 100%.

For `CS(=O)(=O)c1ccc(C(=O)C2C(=O)CCCC2=O)c(Cl)c1` [Component B2.1, sulcotrione], in the data set on corn [1] (setting [5]), the “Damage reduced by” value is recorded as 77%.

With `CS(=O)(=O)c1ccc(C(=O)C2C(=O)CCCC2=O)c([N+](=O)[O-])c1` [Component B2.3, mesotrione], the “Damage reduced by” value in the data set with corn [1] (setting [5]) was determined as 83%.

As for `Cc1c(C(=O)c2cnn(C)c2O)ccc(S(C)(=O)=O)c1C1=NOCC1` [Component B2.4, topramezone], the “Damage reduced by” value in the data set on corn [1] (setting [5]) was determined as 64%.

With `CSc1nnc(C(C)(C)C)c(=O)n1N` [Component B3.1, metribuzin], the “Damage reduced by” value with corn [2] (setting [6]) was determined as 50%.

On to `CCCN(CCC)C(=O)SCC` [Component B4.1, EPTC], for which the “Damage reduced by” value with corn [1] (setting [5]) worked out at 62%.

Consider `CCc1cccc(C)c1N(C(=O)CCl)[C@@H](C)COC` [Component B5.2, S-metolachlor], for which, in the data set on corn [2] (setting [6]), the “Damage reduced by” value was found to be 78%.

As to `COc1c(Cl)ccc(Cl)c1C(=O)O` [Component B7.1, dicamba], in the data set with corn [1] (in vivo), the “Damage reduced by” value turned out to be 100%.

Regarding `CCC(CC)Nc1c([N+](=O)[O-])cc(C)c(C)c1[N+](=O)[O-]` [Component B10.1, pendimethalin], the “Damage reduced by” value with corn [2] (setting [6]) is recorded as 54%.

(Values after US20070010399A1, “Crop plant-compatible herbicidal compositions comprising herbicides and safeners” (priority 2005, published 2007).)
